This passage reports IC50 results from US8003654B2, “N-glycinsulfonamide derivatives and uses as orexin receptor antagonists” (Actelion Pharmaceuticals Ltd., priority 2006, dated 2011).

Test [1] concerns the target T1, human orexin-1 receptor (Homo sapiens, UniProt O43613).
T1 construct: expressed in transfected cells; host or cells: CHO cells (G418 selection)
T1 sequence (O43613 1-425): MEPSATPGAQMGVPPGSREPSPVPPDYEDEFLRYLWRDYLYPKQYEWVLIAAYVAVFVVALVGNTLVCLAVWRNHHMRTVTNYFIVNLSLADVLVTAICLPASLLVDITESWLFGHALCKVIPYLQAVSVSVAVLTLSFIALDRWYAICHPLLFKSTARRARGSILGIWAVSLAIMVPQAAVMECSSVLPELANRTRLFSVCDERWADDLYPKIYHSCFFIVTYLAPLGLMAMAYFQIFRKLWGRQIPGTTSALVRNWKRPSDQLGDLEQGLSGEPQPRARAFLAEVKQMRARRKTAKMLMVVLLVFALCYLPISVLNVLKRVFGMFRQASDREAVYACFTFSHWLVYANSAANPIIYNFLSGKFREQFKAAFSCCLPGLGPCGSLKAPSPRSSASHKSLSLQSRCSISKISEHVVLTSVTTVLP
Kind of test: Intracellular calcium measurements (FLIPR), antagonism of 10 nM orexin-A in CHO cells expressing the human orexin-1 receptor. It counts as cell-based. Conditions: CHO cells expressing human orexin-1 receptor, agonist 10 nM orexin-A, read-out: OX1 IC50. As to the method: (§1) The orexin receptor antagonistic activity of the compounds of formula (I) is determined in accordance with the following experimental method.
(§2) • Intracellular Calcium Measurements:
(§3) Chinese hamster ovary (CHO) cells expressing the human orexin-1 receptor and the human orexin-2 receptor, respectively, are grown in culture medium (Ham F-12 with L-Glutamine) containing 300 μg/ml G418, 100 U/ml penicillin, 100 μg/ml streptomycin and 10% inactivated fetal calf serum (FCS). The cells are seeded at 80,000 cells/well into 96-well black clear bottom sterile plates (Costar) which have been precoated with 1% gelatine in Hanks' Balanced Salt Solution (HBSS). All reagents are from Gibco BRL. The seeded plates are incubated overnight at 37° C. in 5% CO2.
(§4) Human orexin-A as an agonist is prepared as 1 mM stock solution in methanol:water (1:1), diluted in HBSS containing 0.1% bovine serum albumin (BSA) and 2 mM HEPES for use in the assay at a final concentration of 10 nM.
(§5) Antagonists are prepared as 10 mM stock solution in DMSO, then diluted in 96-well plates, first in DMSO, then in HBSS containing 0.1% bovine serum albumin (BSA) and 2 mM HEPES.
(§6) On the day of the assay, 100 μl of loading medium (HBSS containing 1% FCS, 2 mM HEPES, 5 mM probenecid (Sigma) and 3 μM of the fluorescent calcium indicator fluo-3 AM (1 mM stock solution in DMSO with 10% pluronic acid) (Molecular Probes) is added to each well.
(§7) The 96-well plates are incubated for 60 min at 37° C. in 5% CO2. The loading solution is then aspirated and cells are washed 3 times with 200 μl HBSS containing 2.5 mM probenecid, 0.1% BSA, 2 mM HEPES. 100 μl of that same buffer is left in each well.
(§8) Within the Fluorescent Imaging Plate Reader (FLIPR, Molecular Devices), antagonists are added to the plate in a volume of 50 μl, incubated for 20 min and finally 100 μl of agonist is added. Fluorescence is measured for each well at 1 second intervals, and the height of each fluorescence peak is compared to the height of the fluorescence peak induced by 10 nM orexin-A with buffer in place of antagonist. For each antagonist, IC50 value (the concentration of compound needed to inhibit 50% of the agonistic response) is determined. Antagonistic activities of compounds are in the nanomolar range with respect to OX1 and OX2 receptors.
For orientation: Calcium flux is commonly read through the fluorescence of an indicator in the cells.

Test [2] addresses T2, human orexin-2 receptor (Homo sapiens, UniProt O43614).
T2 construct: expressed in transfected cells; host or cells: CHO cells (G418 selection)
T2 sequence (O43614 1-444): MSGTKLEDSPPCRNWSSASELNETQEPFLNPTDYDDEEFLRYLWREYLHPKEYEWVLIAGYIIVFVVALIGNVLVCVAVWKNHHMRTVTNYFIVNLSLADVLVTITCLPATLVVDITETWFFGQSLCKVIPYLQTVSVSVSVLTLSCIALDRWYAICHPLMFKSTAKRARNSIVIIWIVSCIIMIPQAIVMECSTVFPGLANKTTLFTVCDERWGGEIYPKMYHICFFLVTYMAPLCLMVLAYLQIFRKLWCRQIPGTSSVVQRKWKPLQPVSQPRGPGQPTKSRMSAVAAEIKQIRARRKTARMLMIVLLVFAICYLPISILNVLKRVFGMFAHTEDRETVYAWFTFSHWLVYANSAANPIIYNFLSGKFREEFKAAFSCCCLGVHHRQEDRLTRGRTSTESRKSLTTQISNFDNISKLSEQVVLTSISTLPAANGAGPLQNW
Kind of test: Intracellular calcium measurements (FLIPR), antagonism of 10 nM orexin-A in CHO cells expressing the human orexin-2 receptor. Format: cell-based. The following applies: CHO cells expressing human orexin-2 receptor, agonist 10 nM orexin-A, read-out: OX2 IC50. Here is the method: as §1, §2, §3, §4, §5, §6, §7, §8

Regarding `CCN(Cc1cncc(C)n1)C(=S)CN(c1cc(N(C)C)ccc1Cl)S(=O)(=O)c1ccc(OC)c(OC)c1` [Example 14, 2-[(2-Chloro-5-dimethylamino-phenyl)-(3,4-dimethoxy-benzenesulfonyl)-amino]-N-ethyl-N-(6-methyl-pyrazin-2-ylmethyl)-thioacetamide], the IC50 worked out at 0.015 µM in test [1] and 0.012 µM in test [2].
On the same counts, the results for `CCN(Cc1cccc(C)n1)C(=O)CN(c1cc2c(C)nsc2cc1Cl)S(=O)(=O)c1ccc(OC)c(OC)c1` [Example 21, 2-[(6-Chloro-3-methyl-benzo[d]isothiazol-5-yl)-(3,4-dimethoxy-benzenesulfonyl)-amino]-N-ethyl-N-(6-methyl-pyridin-2-ylmethyl)-acetamide] are 0.008 µM and 0.007 µM.
On the same counts, the results for `CCN(CC)C(=O)CN(c1ccc(Cl)cc1C#N)S(=O)(=O)c1ccc(OC)c(OC)c1` [Example 27, 2-[(4-Chloro-2-cyano-phenyl)-(3,4-dimethoxy-benzenesulfonyl)-amino]-N,N-diethyl-acetamide] are 0.18 µM and 0.002 µM.
Taken in the same sequence, the figures for `COc1ccc(S(=O)(=O)N(CC(=O)N(CCO)Cc2ccccn2)c2cc(N(C)C)ccc2Cl)cc1OC` [Example 55, 2-[(2-Chloro-5-dimethylamino-phenyl)-(3,4-dimethoxy-benzenesulfonyl)-amino]-N-(2-hydroxy-ethyl)-N-pyridin-2-ylmethyl-acetamide] were 0.063 µM and 0.007 µM.
Consider `CCN(CC)C(=O)CN(c1cc(N(C)C)ccc1C#N)S(=O)(=O)c1ccc(OC)c(OC)c1` [Example 58, 2-[(2-Cyano-5-dimethylamino-phenyl)-(3,4-dimethoxy-benzenesulfonyl)-amino]-N,N-diethyl-acetamide], for which the half-inhibitory concentration (IC50) in test [1] stood at 0.166 µM; in test [2], 0.01 µM.

By IC50 is commonly meant the concentration that inhibits the measured activity by half.
